Results published in patent US12622448B2 (Givaudan SA, priority 2019, dated 2026).

Legend:
[1] = Expert taster comparison with and without Amadori compound, strawberry flavored yoghurt; details: base: 1.7% fat, 4% sugar, strawberry flavor 0.1%, expert tasters (5-7)
Protocol: (§1) The following formulations were prepared with and without Amadori compound and tasted by expert tasters (5-7) and compared. The Amadori compound was dosed in the consumable with no additional heating required.
Strawberry Flavored Yoghurt

[2] = Expert taster comparison with and without Amadori compound, chocolate flavored milk; details: 5% sugar, 0.05% carrageenan, expert tasters (5-7)
Protocol: as §1

[3] = Expert taster comparison with and without Amadori compound, ice cream; details: 10 ppb; base: 14.31% heavy whipping cream, 77.60% whole milk, 8% sucrose, 0.009% vanillin; expert tasters (5-7)
Protocol: as §1

[4] = Expert taster comparison with and without Amadori compound, vanilla flavored milk; details: expert tasters (5-7)
Protocol: as §1

[5] = Expert taster comparison with and without Amadori compound, cream filling; details: 10 ppb; base: 66.4% sucrose, 32% palm oil, 0.2% salt, 0.4% vanilla extract, 1% water; expert tasters (5-7)
Protocol: as §1

[6] = Expert taster comparison with and without Amadori compound, almond milk; details: 2 ppb; base: commercially available sweetened vanilla almond milk; expert tasters (5-7)
Protocol: as §1

[7] = Expert taster comparison with and without Amadori compound, cheese sauce; details: 10 ppm, expert tasters (5-7)
Protocol: as §1
Base: 33.46% Maltodextrin 10DE; 29.00% Starch Ultrasphere 2000; 10.00% Cheddar Cheese (white); 9.00% non-fat milk powder; 6.20% Whey; 5.00% canola shortening powder; 4.25% salt, 40 mesh; 0.35% yeast extract powder; 0.10% citric acid; 0.10% lactic acid; 2.54% cheese flavor.

[8] = Expert taster comparison with and without Amadori compound, plain low fat yoghurt; details: base: 1.5% fat, 5% sugar, expert tasters (5-7)
Protocol: as §1

For `O=C(O)C1CCCN1CC1(O)OCC(O)C(O)C1O` (centres unmarked), the “taste/mouthfeel compared with base” value ([1]; 1 ppb) was “hardly any effect noticed”, the “taste/mouthfeel compared with base” value ([1]; 10 ppb) was “sweeter, more creamy, richer mouthfeel, more fruity” and the “taste/mouthfeel compared with base” value ([2]; 0.1 ppb, base: 2% milk fat, 2% cocoa powder) was “creamy, full, richer chocolate, slight waxy, more cocoa impact”. For the same compound, the “taste/mouthfeel compared with base” value ([2]; 1 ppb, base: 2% milk fat, 2% cocoa powder) was “more chocolate linger, more chocolate, more complex, full mouthfeel, sweeter impression, thicker, waxy, slight tingle”, the “taste/mouthfeel compared with base” value ([2]; 10 ppm, base: 2% fat milk, 20/cocoa powder) was “more rich, more body, more real chocolate profile, slight increase in bitterness” and the “taste/mouthfeel compared with base” value [3] was “more creamy, sweeter, slightly more body and mouth round effect, slightly more milk fat taste”. The “taste/mouthfeel compared with base” value ([4]; 0.1 ppb, base: 2% milk fat, 4% sugar, 0.2% vanilla extract) was “sweeter linger, more powdery, more fatty body, full and creamy, more dairy impact, creamier mouthfeel, slight waxy mouthfeel”, the “taste/mouthfeel compared with base” value ([4]; 1 ppb, base: 2% milk fat, 4% sugar, 0.2% vanilla extract) was “sweeter, increase fullness, creamier mouthfeel, more dairy, slight waxy mouthfeel” and the “taste/mouthfeel compared with base” value ([4]; 20 ppm, base: half full milk, 5% sugar, 0.1% vanillin) was “slightly fuller, richer than base, fuller like fat, sweeter”. The “taste/mouthfeel compared with base” value ([4]; δ ppm, base: 2% fat milk, 4% sugar, 0.15% vanilla flavor) was “sweeter, more rich creamy, slightly sweeter, juicy, slight metallic and mouth drying”, the “taste/mouthfeel compared with base” value [5] was “more fatty and creamy, sweeter and more salty, more buttery profile” and the “taste/mouthfeel compared with base” value [6] was “more creamy, stronger vanilla flavor, more body, more creamy mouthfeel; sweeter and more salty”. For the same compound, the “taste/mouthfeel compared with base” value [7] was “denser, cheesier, smooth, saltier, creamier mouthfeel, fresher dairy note, rich, slight metallic and astringent”, the “taste/mouthfeel compared with base” value ([8]; 5 ppm) was “less sour, sweeter, creamy” and the “taste/mouthfeel compared with base” value ([8]; 10 ppm) was “increase upfront sweet, less sour”. The “taste/mouthfeel compared with base” value ([8]; 25 ppm) was “metallic linger, increase overall and upfront sweet”.

For `O=C(O)[C@H](Cc1c[nH]cn1)NCC(=O)[C@@H](O)[C@H](O)[C@H](O)CO` [Fru-His, N-(1-deoxy-D-fructose-1-yl)-L-histidine], the “taste/mouthfeel compared with base” value [7] was “more cheesy, slight acidic, aged, meaty, tingling, chalky, increased mouthfeel, creamier”.

In the case of `CC[C@H](C)[C@H](NCC(=O)[C@@H](O)[C@H](O)[C@H](O)CO)C(=O)O` [Fru-Ileu, N-(1-deoxy-D-fructose-1-yl)-L-isoleucine], the “taste/mouthfeel compared with base” value [7] is reported as “slight acidic, bitter, creamier, increased saltiness”.

For `CSCC[C@H](NCC(=O)[C@@H](O)[C@H](O)[C@H](O)CO)C(=O)O` [Fru-Met, N-(1-deoxy-D-fructose-1-yl)-L-methionine], the “taste/mouthfeel compared with base” value [7] was “more rich, cheesy, umami, astringent, sharper cheese notes, salty”.

For `O=C(O)C(CO)NCC1(O)OCC(O)C(O)C1O` (centres unmarked) [Fru-Ser], the “taste/mouthfeel compared with base” value [7] was “cheesy, creamy, rich, tingling, metallic, thick, smooth”.
